Laboratory results as given in US20240091295A1, “PIPER NIGRUM COMPOSITION AND METHOD OF TREATING PAIN” (priority 2022, published 2024).

System: mice
Assay: Acetic acid-induced writhing test
Assay type: in vivo
Settings: 30 mg/kg i.p., vs control group
Procedure: Male Balb/c mice procured from the authorized animal supplier Biogen Laboratory Animal Facility, Bangalore, India were used for the animal experiments. The animals were housed in the animal facility of R&D Center, Vidya Herbs Pvt Ltd under controlled environmental conditions (temperature: 23±2° C., relative humidity: 35-50%, 12 h light/dark cycle). The animals were given commercial pellet diet and water ad libitum. All the animals were allowed to acclimatize to the environmental conditions before the start of experiments. The experimental protocols were approved by the Institutional Animal Ethics Committee (IAEC) of Vidya Herbs Pvt Ltd., Bangalore, India (VHPL/PCL/IAEC/01/2021).
Twenty-four male mice were randomized to four groups (n=6 in each group): Control group were given normal saline solution while positive control group received reference drug Diclofenac sodium (30 mg/kg). Two test doses of the inventive composition (25 and 50 mg/kg body weight) were used in the test. All the treatments were intraperitoneally injected. 30 min after the respective treatments, the animals were given 10 mL/kg body weight of 1% acetic acid intraperitoneally. The number of writhes were recorded after 10 min of acetic acid administration.
All the experimental data were analyzed by one way ANOVA followed by Tukey's multiple comparison test using GraphPad Prism 9.0 (GraphPad Software, Inc.). […]

O=C(O)Cc1ccccc1Nc1c(Cl)cccc1Cl [diclofenac sodium, Diclofenac sodium]
writhing inhibition: 86.55%
